Measured values reported in patent US7838049B2, “Extracts and compounds for inhibiting tyrosinase activity” (Taipei Medical University, priority 2009, dated 2010).

Key:
tyrosinase [1] = target: T1, tyrosinase (Homo sapiens, UniProt P14679); assay: Assay of tyrosinase activity in human melanocyte (HEMn) cells; type: cell-based; settings: for inhibitory activity on tyrosinase: HEMn cells treated 24 hours, lysate reacted with L-DOPA, OD475 vs control, FIG. 1 and FIG. 2
T1 construct: Lysis buffer (1% Triton X-100, 1 mM phenylmethylsulfonyl fluoride (PMSF), 1 μg/ml aprotinin, and 10 μg/ml leupeptin) was added to the resulting cells to obtain the cell proteins; host or cells: HEMn human melanocytes, passages 3 to 10
T1 sequence (P14679 19-529): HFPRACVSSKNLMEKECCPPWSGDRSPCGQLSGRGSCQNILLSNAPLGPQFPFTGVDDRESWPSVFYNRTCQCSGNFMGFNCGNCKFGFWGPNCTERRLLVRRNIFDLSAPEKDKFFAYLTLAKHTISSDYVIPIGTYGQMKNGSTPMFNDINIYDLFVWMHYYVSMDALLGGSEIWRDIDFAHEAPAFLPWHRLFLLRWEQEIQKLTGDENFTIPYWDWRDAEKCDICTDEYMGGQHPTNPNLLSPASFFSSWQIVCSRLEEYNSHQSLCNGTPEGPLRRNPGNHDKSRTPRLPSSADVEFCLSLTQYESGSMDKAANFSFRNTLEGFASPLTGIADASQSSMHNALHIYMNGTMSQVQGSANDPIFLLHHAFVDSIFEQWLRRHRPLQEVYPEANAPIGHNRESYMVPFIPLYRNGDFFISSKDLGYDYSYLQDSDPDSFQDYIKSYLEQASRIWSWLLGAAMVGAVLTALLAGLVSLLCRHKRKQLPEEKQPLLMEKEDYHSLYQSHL
Description: Human melanocyte (HEMn) cells are cultured with medium 254 containing antibiotics and growth factors (Cascade Biologics, Inc., Portland, Oreg., USA) in an incubator with 5% CO2 for serial passage. Passages 3 to 10 of the HEMn cells were used in the experiments below.
HEMn cells were further cultured for 48 hours and then the ethyl acetate extract of the invention and the test compounds (MHL-1: 3,4-dihydroxy-5-methoxybiphenyl-2′-O-β-d-glucopyranoside and MHL-2: 3,6-dihydroxy-2,4-dimethoxy-dibenzofuran) were added. After 24 hours, the cells were washed with PBS buffer. Lysis buffer (1% Triton X-100, 1 mM phenylmethylsulfonyl fluoride (PMSF), 1 μg/ml aprotinin, and 10 μg/ml leupeptin) was added to the resulting cells to obtain the cell proteins. The cell proteins were kept at −80° C. Subsequently, the cell proteins were thawed and then centrifuged at 12,000 rpm for 5 minutes. The supernatant was taken for determination of the amount of protein by BCA protein assay. The proteins with different concentrations were added to a 96-well microplate and then PBS buffers were added. L-DOPA was added to the microplate to react with the protein at 37° C. for 1 hour. The absorbance of the solution at 475 nm wavelength was detected. Tyrosinase activity (%)=(OD475 of the sample/OD475 of control)×100.
Arbutin as positive control and 1% DMSO as blank were used in the tyrosinase activity assay stated above. […] MHL-1 and MHL-2 inhibit around 40% and 20% tyrosinase activity, respectively. The ethyl acetate extract and the compounds of the invention are effective in inhibiting tyrosinase.

tyrosinase [2] = target: T1, tyrosinase; assay: Tyrosinase oxidative activity analysis by L-Dopa staining of SDS-PAGE gels; type: cell-based; settings: HEMn cells treated with 100, 80 and 60 μM of MHL-1; FIG. 3
Description: The compound of the invention, MHL-1, with different concentrations was added to HEMn cells. The lysis of HEMn cells, isolation of cell proteins and BCA protein assay were performed on the supernatant obtained as stated in Example 1 so that the amount of the protein could be determined. 10% SDS-polyacrylamide gel electrophoresis (dd-H2O; 10% Acrylamide mix; 1.5M Tris-base pH8.8; 10% SDS; 10% Ammonium persulfate; TEMED) was performed on the resulting protein and the sample buffer (60 mM Tris-HCl, pH 6.8, 2% sodium dodecyl sulfate (SDS), 10% glycerol, 0.01% bromophenol blue) at the same time. The molecular weight of tyrosinase was about 72 kDa. The resulting gels were washed with 0.1 M of PBS (pH 6.8) for 30 minutes and then the protein at the position of 72 kDa reacted with 5 mM L-DOPA in 0.1 M PBS at 37° C. for 1 hour. After the reaction, Quantity One 1-D software was used to determine the amount of protein.

Row | SMILES | inhibitory activity on tyrosinase (tyrosinase [1]) | tyrosinase inhibitory activity compared with arbutin (positive control) (tyrosinase [1]; HEMn cells, FIG. 2) | tyrosinase oxidative activity (L-DOPA staining of the 72 kDa band) (tyrosinase [2])
1 | COc1cc(-c2ccccc2OC2OC(CO)C(O)C(O)C2O)cc(O)c1O [MHL-1, 3,4-dihydroxy-5-methoxybiphenyl-2′-O-β-D-glucopyranoside] | around 40% | superior activity compared to arbutin | the higher the concentration of MHL-1, the lower the tyrosinase oxidative activity
2 | COc1cc2c(oc3c(O)cccc32)c(OC)c1O [MHL-2, 3,6-dihydroxy-2,4-dimethoxy-dibenzofuran] | ~20% | – | –
